# “Also recorded” adds a separate entry of the source.
# What was measured:
# human squamous carcinoma = conditions: nude mice bearing a human squamous carcinoma; cited from earlier work
# [1] = Normal tissue toxicity in experimental animals (body weight, white blood cells, BUN, histopathology/biopsy of kidney and intestine); type: in vivo
# Experimental: Thioplatin administered to experimental animals was assayed for the effects of the drug on body weight, white blood cells, BUN and histophathology of kidneys and small intestines.
# [2] = tested on: human lung and colon cancer; assay: Tumor cytotoxicity in human tumor xenografts in nude mice; type: in vivo
# DNA of tumor cells [3] = assay: DNA binding of platinum compounds; conditions: for DNA binding: pH 6.8 (solid tumor pH norm)
# Text: ^195mPlatinum is cytotoxic by its release of “auger” electron at 33/disintegrations and with a half-life of over 4 days. In order to amplify the cytotoxicity of the tumor cells, the final drug radioactive thioplatin must be located on the DNA of tumor cells. […] Radioactive thioplatin can be quantitated in the clinic by nuclear SPECT scanning of the tumor and normal tissues for low-energy photons (65-129 kev) emitted by radioactive platinum.
# [4] = background statement; cited from earlier work
# DNA of tumor cells [5] = conditions: background statement; cited from earlier work
Molecule,"antitumor effect (tumor growth delay, log of tumor growth, area under the curve) (human squamous carcinoma)",effect on BUN ([1]; experimental animals),effect on body weight ([1]; experimental animals),effect on white blood cells ([1]; experimental animals),histopathology of kidneys and small intestines ([1]; experimental animals),"normal tissue toxicity compared to cisplatin ([1]; human tumor xenografts in nude mice, compared to the standard cisplatin)","tumor cytotoxicity ([2]; human tumor xenografts in nude mice, human lung and colon cancer)",pH dependence of cytotoxicity ([2]; tumor pH 6.8 versus normal pH 7.2 to 7.4),"DNA binding relative to cisplatin (DNA of tumor cells [3]; background statement, compared to cisplatin)",DNA binding (DNA of tumor cells [3]),peripheral toxicity by direct biopsy of the kidney and intestinal tract [4],binding of DNA (DNA of tumor cells [5]) [nanograms/milligrams]
N.N.[Cl][191Pt][Cl] [^191cisplatin],cytotoxic to the tumor,,,,,,,,,,,
thioplatin,,negligible,negligible,negligible,negligible,reduced normal tissue toxicity,cytotoxic to human lung and colon cancer; also recorded: significant tumor cytotoxicity,most effective at an acidic pH,one-thousand,"13,870 ng/mg",lack of normal tissue toxicity,
N.N.[Cl][Pt][Cl] [cisplatin],,,,,,,,,,14.6 ng/mg,,14.3

# Source: US20030228253A1, “Radiolabelled thioplatin, compositions thereof and methods of cancer treatment” (priority 2002, published 2003)
